From US20240327372A1, “PREPARATION OF PHENE[…] […] STEREOISOMERS THEREOF AND PRECURSORS THEREOF” (priority 2022, published 2024)
Like-named read-outs stand apart in the source and are kept apart here.

What was measured:
[1] = Pharmacokinetics of methylone after single IV, PO or IP administration, plasma LC-MS/MS; type: in vivo, male Sprague Dawley rats; conditions: for MRT last: read-out: MRT0-last; for Cmax: rat plasma
Method: The pharmacokinetic properties of methylone after a single administration intravenously (IV), intraperitoneally (IP), or by oral gavage (PO) in male Sprague Dawley rats has been determined using a liquid chromatography tandem mass spectrometry (LC-MS/MS) method that has been established and validated for methylone in the rat. Rats (n=3 per group) received a single dose of methylone: 5 mg/kg IV, 15 mg/kg IP, or 15 mg/kg PO.
To investigate whether the prodrug extends the half-life or alters other basic pharmacokinetic properties of methylone (e.g., Cmax or Tmax), rats are treated with each prodrug IV, IP, or PO. For each compound, three groups of rats are treated as follows: For group 1, a single dose of methylone is administered to 3 male Sprague-Dawley rats by IV bolus at 5 mg/kg. For group 2, a single dose of methylone is administered to 3 male Sprague-Dawley rats by oral gavage (PO) at 15 mg/kg. For group 3, a single dose of methylone is administered to 3 male Sprague-Dawley rats by IP at 15 mg/kg. For all groups, blood samples are collected from each animal at 0.083, 0.25, 0.5, 1, 2, 4, 8, 12, and 24 hours post-dose for the determination of plasma concentrations. The plasma concentrations are quantified by liquid chromatography tandem mass spectrometry (LC-MS/MS). The bioanalytical assay has been established and validated, providing a lower limit of quantification (LLOQ) of 1 ng/mL and an upper limit of quantification (ULOQ) of 3000 ng/mL for methylone. The plasma concentration-time data are analyzed using Phoenix WinNonlin (version 8.3) to characterize the PK properties of the analyte. The non-compartmental analysis model and the linear/log trapezoidal method are applied to calculating the PK parameters.

[2] = rat; Elmore et al. 2017; cited from earlier work
[3] = system: mouse model of PTSD; experiment: Fear extinction in a mouse model of PTSD; type: in vivo; conditions: 30 mg/kg IP
Method: FIGS. 1A-1D: Methylone improves fear extinction recall in a mouse model of PTSD. (FIG. 1A) Schematic of experimental design. A single CS-US (tone-shock) pairing on day 1 was followed by 6 CS presentations in a novel context (context B). Methylone or saline vehicle was injected 30 min prior to extinction training on day 2. On day 3, the time spent freezing to the CS was quantified. […] (FIG. 1C) The time freezing before vs. during each of 6 cues on day 3 (to control for locomotor effects) are shown. There was a significant cue x drug interaction (F(5, 130)=2.409, p<0.05). […] N=12 for methylone group (30 mg/kg, IP, orange diamonds) and N=16 for saline control group (black squares). *p<0.05
Effective PTSD treatments facilitate the disassociation between a traumatic memory and the patient's fear response, making cues for the traumatic memory evoke less of a fear response. This is modeled in the mouse fear extinction paradigm which takes place over 3 days. On day 1 (fear conditioning), mice are trained to acquire a “traumatic memory,” namely associating the conditioned stimulus (CS, tone) to the unconditioned stimulus (US, foot shock). […] On day 3 (extinction recall), the mice are “asked” if that tone (CS) still elicits a fearful response, as measured by the time spent freezing when the tone is presented. […]

[4] = system: rat forced swim test (FST); experiment: Rat forced swim test (FST); type: in vivo
Method: All FST studies are performed and scored by an experimenter blind to treatment group and according to standard protocols. Briefly, rats are placed in a circular plexiglass container filled with water. Water temperature is maintained at 22-25° C. and changed for every animal. Day 1 (Training) consists of a 15 min acclimation trial, and Day 2 (Testing, 24 h later) consists of the 5 min test. A time sampling procedure is employed where animals are observed every 5 seconds for the duration of the test session (60 counts or 5 minutes) and scored for immobility (defined as the failure to struggle), swimming (defined as a circular movement around the tank), or climbing (defined as an upwards escape behavior). Data are expressed as the percent of the testing session (e.g., the number of immobility counts divided by 60). A p-value less than 0.05 indicates statistical significance after typical statistical analyses (e.g., unpaired t-test or ANOVA).
To determine that the prodrug and/or enantiomer has an antidepressant-like effect and to compare it to methylone, rats are treated with each compound 30 min prior to testing. Additional tests are run 24, 72, 168 hours post-dose or longer.
Racemic methylone (10 mg/kg, IP) has a maximal antidepressant-like effect in the rat forced swim test (FST), reducing immobility by nearly 100% compared to vehicle treated controls. To determine whether one enantiomer of methylone could mimic the robust antidepressant-like effect of racemic methylone, rats were treated with a single dose of racemic methylone, (R)-methylone, (S)-methylone (all 10 mg/kg, IP) or vehicle 30 min before testing in the FST. […] Therefore, all of the activity of methylone appears to be driven by the activity of one enantiomer ((S)-methylone).

[5] = self-administration, healthy volunteers; cited from earlier work
[6] = system: PTSD; conditions: clinical case series of 21 individuals; cited from earlier work
[7] = system: open field test; conditions: 5, 10, 20 mg/kg, SC; Štefková et al. 2017; cited from earlier work
[8] = male, Sprague Dawley, rat, plasma, IP 15 mg/kg
[9] = male, Sprague Dawley, rat, plasma, IV 5 mg/kg
[10] = male, Sprague Dawley, rat, plasma, PO 15 mg/kg

CNC(C)C(=O)c1ccc2c(c1)OCO2 (stereo not shown) [Methylone, 3,4-methylenedioxy-N-methylacthinone] showed a Tmax ([1]; IP 15 mg/kg) of 0.250 ± 0.000 h, an AUC(0-t) [1, 8] of 4300 ± 1180 ng·h/mL and a half-life [1, 8] of 0.8 ± 0.169 h. It also gave an MRT last [1, 8] of 1.07 ± 0.211 h, an AUC(0-t) [1, 9] of 1200 ± 88.2 ng·h/mL and a C0 [1, 9] of 3020 ± 666 ng/mL. It also gave a clearance [1, 9] of 68.3 ± 5.4 mL/min/kg, a half-life [1, 9] of 0.362 ± 0.024 h and an MRT last [1, 9] of 0.439 ± 0.026 h. For the same compound, the Vd ([1]; male, Sprague Dawley, rat, plasma, IV 5 mg/kg, read-out: Vdss) was 1.98 ± 0.23 L/kg, the AUC(0-t) [1, 10] was 2760 ± 657 ng·h/mL and the half-life [1, 10] was 3.23 ± 1.99 h. It also gave an MRT last [1, 10] of 2.99 ± 0.467 h, a Tmax ([1]; male, Sprague Dawley, rat, plasma, PO 15 mg/kg, read-out: Tmax) of 1.33 ± 0.577 h and a Cmax ([1]; male, Sprague Dawley, IP 15 mg/kg) of 4230 ± 514 ng/mL. For the same compound, the Cmax ([1]; male, Sprague Dawley, PO 15 mg/kg) was 678 ± 243 ng/mL, the t1/2 [2] was 1 h and the “Enhancement of fear extinction recall compared to saline controls” value ([3]; 30 min prior to extinction training) was about 60%. The “Freezing time during the first cue on day 3 (extinction recall) compared to saline” value ([3]; p<0.05) was “significantly reduced”, the “Reduction of immobility compared to vehicle-treated controls” value ([4]; single dose 5 mg/kg) was “approximately 50%” and the “Reduction of immobility compared to vehicle-treated controls” value ([4]; single dose 15 mg/kg) was about 100%. For the same compound, the Heart rate [5] was “increase in heart rate”, the “Systolic and diastolic blood pressure” value [5] was “significant increase” and the “Patients with improved PTSD symptoms” value [6] was 81%. The “Thigmotaxis (time spent hugging the perimeter of the open field)” value [7] was “reduce thigmotaxis”.
